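Five concentrations, 48 hours, 96-well plates. Here, GI50 denotes the concentration required for 50% inhibition of growth.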 Activity calls are given as the source filed them. No stated cut-off is given here; in the data, active = GI50 up to about 1.1 µM and inactive = higher.
Assays:
Assay in all cases: NCI-60 cell line screen, 48 h
SK-MEL-5 = system: SK-MEL-5
HOP-92 = system: HOP-92
A549 = system: A549
UO-31 = system: UO-31
KM12 = system: KM12
HT-29 = system: HT-29
RPMI-8226 = system: RPMI-8226
786-0 = system: 786-0
SK-MEL-28 = system: SK-MEL-28
SN12C = system: SN12C
DU-145 = system: DU-145
OVCAR-4 = system: OVCAR-4
SNB-19 = system: SNB-19
EKVX = system: EKVX
SF-295 = system: SF-295
HCC 2998 = system: HCC 2998
TK-10 = system: TK-10
HCT-116 = system: HCT-116
HOP-62 = system: HOP-62
RXF 393 = system: RXF 393
HCT-15 = system: HCT-15
U-251 = system: U-251
IGROV-1 = system: IGROV-1
MDA-MB-231 = system: MDA-MB-231
SK-OV-3 = system: SK-OV-3
SF-539 = system: SF-539
SW-620 = system: SW-620
UACC-257 = system: UACC-257
ACHN = system: ACHN
A498 = system: A498
SF-268 = system: SF-268
HL-60 = system: HL-60
LOX IMVI = system: LOX IMVI
Hs-578T = system: Hs-578T
MOLT-4 = system: MOLT-4
CAKI-1 = system: CAKI-1
T47D = system: T47D
M14 = system: M14
SNB-75 = system: SNB-75
BT-549 = system: BT-549
K562 = system: K562
NCI-H460 = system: NCI-H460
NCI/ADR-RES = system: NCI/ADR-RES
CCRF-CEM = system: CCRF-CEM
MDA-MB-435 = system: MDA-MB-435
NCI-H23 = system: NCI-H23
SR = system: SR
PC-3 = system: PC-3
OVCAR-8 = system: OVCAR-8
NCI-H226 = system: NCI-H226
MCF7 = system: MCF7
MDA-N = system: MDA-N
NCI-H522 = system: NCI-H522
SK-MEL-2 = system: SK-MEL-2
UACC-62 = system: UACC-62
COLO 205 = system: COLO 205
OVCAR-3 = system: OVCAR-3
Malme-3M = system: Malme-3M
OVCAR-5 = system: OVCAR-5

SMILES: Cc1ccc(S(=O)(=O)N2CCNCCN(S(=O)(=O)c3ccc(C)cc3)CCN(S(=O)(=O)c3ccc(C)cc3)CC2)cc1
- GI50 (SK-MEL-5): > 100 µM (inactive)
- GI50 (HOP-92): 70.8 µM (inactive)
- GI50 (A549): > 100 µM (inactive)
- GI50 (UO-31): > 100 µM (inactive)
- GI50 (KM12): > 100 µM (inactive)
- GI50 (HT-29): > 100 µM (inactive)
- GI50 (RPMI-8226): > 100 µM (inactive)
- GI50 (786-0): > 100 µM (inactive)
- GI50 (SK-MEL-28): > 100 µM (inactive)
- GI50 (SN12C): > 100 µM (inactive)
- GI50 (DU-145): > 100 µM (inactive)
- GI50 (OVCAR-4): > 100 µM (inactive)
- GI50 (SNB-19): > 100 µM (inactive)
- GI50 (EKVX): > 100 µM (inactive)
- GI50 (SF-295): > 100 µM (inactive)
- GI50 (HCC 2998): > 100 µM (inactive)
- GI50 (TK-10): > 100 µM (inactive)
- GI50 (HCT-116): > 100 µM (inactive)
- GI50 (HOP-62): > 100 µM (inactive)
- GI50 (RXF 393): > 100 µM (inactive)
- GI50 (HCT-15): > 100 µM
- GI50 (U-251): > 100 µM (inactive)
- GI50 (IGROV-1): > 100 µM (inactive)
- GI50 (MDA-MB-231): > 100 µM (inactive)
- GI50 (SK-OV-3): > 100 µM (inactive)
- GI50 (SF-539): > 100 µM (inactive)
- GI50 (SW-620): > 100 µM (inactive)
- GI50 (UACC-257): > 100 µM (inactive)
- GI50 (ACHN): > 100 µM (inactive)
- GI50 (A498): > 100 µM (inactive)
- GI50 (SF-268): > 100 µM (inactive)
- GI50 (HL-60): > 100 µM (inactive)
- GI50 (LOX IMVI): > 100 µM (inactive)
- GI50 (Hs-578T): > 100 µM (inactive)
- GI50 (MOLT-4): > 100 µM (inactive)
- GI50 (CAKI-1): > 100 µM (inactive)
- GI50 (T47D): > 100 µM (inactive)
- GI50 (M14): > 100 µM (inactive)
- GI50 (SNB-75): 54.3 µM (inactive)
- GI50 (BT-549): > 100 µM (inactive)
- GI50 (K562): > 100 µM (inactive)
- GI50 (NCI-H460): > 100 µM (inactive)
- GI50 (NCI/ADR-RES): > 100 µM (inactive)
- GI50 (CCRF-CEM): > 100 µM (inactive)
- GI50 (MDA-MB-435): > 100 µM (inactive)
- GI50 (NCI-H23): > 100 µM (inactive)
- GI50 (SR): > 100 µM (inactive)
- GI50 (PC-3): > 100 µM (inactive)
- GI50 (OVCAR-8): > 100 µM (inactive)
- GI50 (NCI-H226): > 100 µM (inactive)
- GI50 (MCF7): > 100 µM (inactive)
- GI50 (MDA-N): > 100 µM (inactive)
- GI50 (NCI-H522): > 100 µM (inactive)
- GI50 (SK-MEL-2): > 100 µM (inactive)
- GI50 (UACC-62): > 100 µM (inactive)
- GI50 (COLO 205): > 100 µM (inactive)
- GI50 (OVCAR-3): > 100 µM (inactive)
- GI50 (Malme-3M): > 100 µM (inactive)
- GI50 (OVCAR-5): > 100 µM (inactive)

SMILES: COc1nc2nccnc2c(=O)n1C
- GI50 (SK-MEL-5): > 10 µM (inactive)
- GI50 (HOP-92): > 10 µM (inactive)
- GI50 (A549): > 10 µM (inactive)
- GI50 (UO-31): > 10 µM (inactive)
- GI50 (KM12): > 10 µM (inactive)
- GI50 (HT-29): > 10 µM (inactive)
- GI50 (RPMI-8226): > 10 µM (inactive)
- GI50 (786-0): > 10 µM (inactive)
- GI50 (SK-MEL-28): > 10 µM (inactive)
- GI50 (SN12C): > 10 µM (inactive)
- GI50 (DU-145): > 10 µM (inactive)
- GI50 (OVCAR-4): > 10 µM (inactive)
- GI50 (SNB-19): > 10 µM (inactive)
- GI50 (EKVX): > 10 µM (inactive)
- GI50 (SF-295): > 10 µM (inactive)
- GI50 (HCC 2998): > 10 µM (inactive)
- GI50 (TK-10): > 10 µM (inactive)
- GI50 (HCT-116): > 10 µM (inactive)
- GI50 (HOP-62): > 10 µM (inactive)
- GI50 (RXF 393): > 10 µM (inactive)
- GI50 (HCT-15): > 10 µM
- GI50 (U-251): > 10 µM (inactive)
- GI50 (IGROV-1): > 10 µM (inactive)
- GI50 (MDA-MB-231): > 10 µM (inactive)
- GI50 (SK-OV-3): > 10 µM (inactive)
- GI50 (SF-539): > 10 µM (inactive)
- GI50 (SW-620): > 10 µM (inactive)
- GI50 (UACC-257): > 10 µM (inactive)
- GI50 (ACHN): > 10 µM (inactive)
- GI50 (A498): > 10 µM (inactive)
- GI50 (SF-268): > 10 µM (inactive)
- GI50 (HL-60): > 10 µM (inactive)
- GI50 (LOX IMVI): > 10 µM (inactive)
- GI50 (Hs-578T): > 10 µM (inactive)
- GI50 (MOLT-4): > 10 µM (inactive)
- GI50 (CAKI-1): > 10 µM (inactive)
- GI50 (T47D): > 10 µM (inactive)
- GI50 (M14): > 10 µM (inactive)
- GI50 (SNB-75): > 10 µM (inactive)
- GI50 (BT-549): > 10 µM (inactive)
- GI50 (K562): > 10 µM (inactive)
- GI50 (NCI-H460): > 10 µM (inactive)
- GI50 (NCI/ADR-RES): > 10 µM (inactive)
- GI50 (CCRF-CEM): > 10 µM (inactive)
- GI50 (MDA-MB-435): > 10 µM (inactive)
- GI50 (NCI-H23): > 10 µM (inactive)
- GI50 (SR): > 10 µM (inactive)
- GI50 (PC-3): > 10 µM (inactive)
- GI50 (OVCAR-8): > 10 µM (inactive)
- GI50 (NCI-H226): > 10 µM (inactive)
- GI50 (MCF7): > 10 µM (inactive)
- GI50 (MDA-N): > 10 µM (inactive)
- GI50 (NCI-H522): > 10 µM (inactive)
- GI50 (SK-MEL-2): > 10 µM (inactive)
- GI50 (UACC-62): > 10 µM (inactive)
- GI50 (COLO 205): > 10 µM (inactive)
- GI50 (OVCAR-3): > 10 µM (inactive)
- GI50 (Malme-3M): > 10 µM (inactive)
- GI50 (OVCAR-5): > 10 µM (inactive)

SMILES: O=C1c2ccccc2-c2ccc(N(Cc3ccc(Br)cc3)Cc3ccc(Br)cc3)cc21
- GI50 (SK-MEL-5): > 100 µM (inactive)
- GI50 (HOP-92): > 100 µM (inactive)
- GI50 (A549): 22.3 µM (inactive)
- GI50 (UO-31): > 100 µM (inactive)
- GI50 (KM12): > 100 µM (inactive)
- GI50 (HT-29): > 100 µM (inactive)
- GI50 (RPMI-8226): > 100 µM (inactive)
- GI50 (786-0): > 100 µM (inactive)
- GI50 (SK-MEL-28): > 100 µM (inactive)
- GI50 (SN12C): > 100 µM (inactive)
- GI50 (DU-145): > 100 µM (inactive)
- GI50 (OVCAR-4): > 100 µM (inactive)
- GI50 (SNB-19): > 100 µM (inactive)
- GI50 (EKVX): > 100 µM (inactive)
- GI50 (SF-295): > 100 µM (inactive)
- GI50 (HCC 2998): > 100 µM (inactive)
- GI50 (TK-10): > 100 µM (inactive)
- GI50 (HCT-116): > 100 µM (inactive)
- GI50 (HOP-62): > 100 µM (inactive)
- GI50 (RXF 393): > 100 µM (inactive)
- GI50 (HCT-15): > 100 µM
- GI50 (U-251): > 100 µM (inactive)
- GI50 (IGROV-1): > 100 µM (inactive)
- GI50 (MDA-MB-231): > 100 µM (inactive)
- GI50 (SK-OV-3): > 100 µM (inactive)
- GI50 (SF-539): > 100 µM (inactive)
- GI50 (SW-620): > 100 µM (inactive)
- GI50 (UACC-257): > 100 µM (inactive)
- GI50 (ACHN): > 100 µM (inactive)
- GI50 (A498): > 100 µM (inactive)
- GI50 (SF-268): > 100 µM (inactive)
- GI50 (HL-60): 20.7 µM (inactive)
- GI50 (LOX IMVI): > 100 µM (inactive)
- GI50 (Hs-578T): > 100 µM (inactive)
- GI50 (MOLT-4): 36.2 µM (inactive)
- GI50 (CAKI-1): > 100 µM (inactive)
- GI50 (T47D): > 100 µM (inactive)
- GI50 (M14): > 100 µM (inactive)
- GI50 (SNB-75): > 100 µM (inactive)
- GI50 (BT-549): > 100 µM (inactive)
- GI50 (K562): > 100 µM (inactive)
- GI50 (NCI-H460): 9.82 µM (inactive)
- GI50 (NCI/ADR-RES): > 100 µM (inactive)
- GI50 (CCRF-CEM): 11.1 µM (inactive)
- GI50 (MDA-MB-435): > 100 µM (inactive)
- GI50 (NCI-H23): > 100 µM (inactive)
- GI50 (SR): 2.44 µM (inactive)
- GI50 (PC-3): > 100 µM (inactive)
- GI50 (OVCAR-8): > 100 µM (inactive)
- GI50 (NCI-H226): > 100 µM (inactive)
- GI50 (MCF7): > 100 µM (inactive)
- GI50 (MDA-N): > 100 µM (inactive)
- GI50 (NCI-H522): > 100 µM (inactive)
- GI50 (SK-MEL-2): > 100 µM (inactive)
- GI50 (UACC-62): > 100 µM (inactive)
- GI50 (COLO 205): > 100 µM (inactive)
- GI50 (OVCAR-3): > 100 µM (inactive)
- GI50 (Malme-3M): > 100 µM (inactive)
- GI50 (OVCAR-5): > 100 µM (inactive)

Source: ChEMBL document CHEMBL1201862, “PubChem BioAssay data set” (2004)
